Source: ChEMBL document CHEMBL1201861, “Genomics of Drug Sensitity in Cancer screening data, Wellcome Trust Sanger Institute”

Key:
ECC4 = test: cells; format: functional, cell-based, Homo sapiens; conditions: Homo sapiens, ECC4;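 further: growth inhibition of ECC4 cells, read out with a cell viability assay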
Description: SANGER: Inhibition of human ECC4 cell growth in a cell viability assay.

NUGC-3 = test: cells; format: functional, cell-based; conditions: Homo sapiens;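 further: growth inhibition of human NUGC-3 cells, read out with a cell viability assay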
Description: SANGER: Inhibition of human NUGC-3 cell growth in a cell viability assay.

PFSK-1 = test: cells; format: functional, cell-based; conditions: Homo sapiens;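 further: cell viability assay measuring how strongly compounds suppress growth of human PFSK-1 cells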
Description: SANGER: Inhibition of human PFSK-1 cell growth in a cell viability assay.

Detroit 562 = test: cells; format: functional, cell-based; conditions: Homo sapiens;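 further: growth inhibition of human Detroit 562 cells, read out by a cell viability assay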
Description: SANGER: Inhibition of human Detroit562 cell growth in a cell viability assay.

COLO-678 = test: cells; format: functional, cell-based; conditions: Homo sapiens
Description: SANGER: Inhibition of human COLO-678 cell growth in a cell viability assay.

NCI-H64 = test: cells; format: functional, cell-based, Homo sapiens; conditions: Homo sapiens, NCI-H64;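 further: growth inhibition of NCI-H64 cells, read out with a cell viability assay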
Description: SANGER: Inhibition of human NCI-H64 cell growth in a cell viability assay.

NCI-H1522 = test: cells; format: functional, cell-based, Homo sapiens; conditions: Homo sapiens, NCI-H1522;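 further: growth inhibition of NCI-H1522 cells, read out with a cell viability assay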
Description: SANGER: Inhibition of human NCI-H1522 cell growth in a cell viability assay.

HSC-3 = test: cells; format: functional, cell-based; conditions: Homo sapiens
Description: SANGER: Inhibition of human HSC-3 cell growth in a cell viability assay.

Raji = test: cells; format: functional, cell-based, Homo sapiens; conditions: Homo sapiens, Raji;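 further: cell viability assay measuring inhibition of Raji cell growth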
Description: SANGER: Inhibition of human Raji cell growth in a cell viability assay.

COLO-680N = test: cells; format: functional, cell-based; conditions: Homo sapiens;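 further: cell viability assay used to measure inhibition of COLO-680N cell growth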
Description: SANGER: Inhibition of human COLO-680N cell growth in a cell viability assay.

CESS = test: SANGER: Inhibition of human CESS cell growth in a cell viability assay.; format: functional, cell-based; conditions: Homo sapiens, CESS
SF-295 = test: cells; format: functional, cell-based; conditions: Homo sapiens;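 further: growth inhibition of SF-295 cells, read out with a cell viability assay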
Description: SANGER: Inhibition of human SF295 cell growth in a cell viability assay.

LB647-SCLC = test: cells; format: functional, cell-based, Homo sapiens; conditions: Homo sapiens, LB647-SCLC;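 further: cell growth inhibition, read out by a viability assay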
Description: SANGER: Inhibition of human LB647-SCLC cell growth in a cell viability assay.

UMC-11 = test: cells; format: functional, cell-based; conditions: Homo sapiens;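 further: growth inhibition of UMC-11 cells, read out with a cell viability assay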
Description: SANGER: Inhibition of human UMC-11 cell growth in a cell viability assay.

THP-1 = test: cells; format: functional, cell-based, Homo sapiens; conditions: Homo sapiens, THP-1;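 further: growth inhibition of THP-1 cells, read out via a cell viability assay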
Description: SANGER: Inhibition of human THP-1 cell growth in a cell viability assay.

RPMI-2650 = test: cells; format: functional, cell-based; conditions: Homo sapiens
Description: SANGER: Inhibition of human RPMI-2650 cell growth in a cell viability assay.

GAMG = test: cells; format: functional, cell-based; conditions: Homo sapiens;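 further: cell growth inhibition measured by a viability assay in the GAMG human cell line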
Description: SANGER: Inhibition of human GAMG cell growth in a cell viability assay.

A673 = test: cells; format: functional, cell-based; conditions: Homo sapiens;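 further: growth inhibition of human A673 cells, read out through a cell viability assay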
Description: SANGER: Inhibition of human A673 cell growth in a cell viability assay.

ARH-77 = test: cells; format: functional, cell-based, Homo sapiens; conditions: Homo sapiens, ARH-77;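 further: growth inhibition of ARH-77 cells, read out by a cell viability assay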
Description: SANGER: Inhibition of human ARH-77 cell growth in a cell viability assay.

LN-405 = test: cells; format: functional, cell-based; conditions: Homo sapiens
Description: SANGER: Inhibition of human LN-405 cell growth in a cell viability assay.

H4 = test: cells; format: functional, cell-based; conditions: Homo sapiens
Description: SANGER: Inhibition of human H4 cell growth in a cell viability assay.

CAL-120 = test: cells; format: functional, cell-based; conditions: Homo sapiens;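 further: cell growth inhibition, read out as cell viability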
Description: SANGER: Inhibition of human CAL-120 cell growth in a cell viability assay.

BC1 cell line = test: SANGER: Inhibition of human BC-1 cell growth in a cell viability assay.; format: functional, cell-based; conditions: Homo sapiens, BC1
639-V = test: cells; format: functional, cell-based; conditions: Homo sapiens;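 further: growth inhibition of 639-V cells, read out with a cell viability assay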
Description: SANGER: Inhibition of human 639-V cell growth in a cell viability assay.

AU565 = test: cells; format: functional, cell-based; conditions: Homo sapiens;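 further: cell viability assay measuring growth inhibition of human AU565 cells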
Description: SANGER: Inhibition of human AU565 cell growth in a cell viability assay.

HuP-T4 = test: cells; format: functional, cell-based; conditions: Homo sapiens;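 further: cell viability assay measuring how much HuP-T4 cell growth is inhibited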
Description: SANGER: Inhibition of human HuP-T4 cell growth in a cell viability assay.

NCI-H2405 = test: cells; format: functional, cell-based; conditions: Homo sapiens;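 further: growth inhibition of the human cell line, read out with a cell viability assay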
Description: SANGER: Inhibition of human NCI-H2405 cell growth in a cell viability assay.

JEG-3 = test: cells; format: functional, cell-based; conditions: Homo sapiens;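 further: growth inhibition of human JEG-3 cells, read out with a cell viability assay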
Description: SANGER: Inhibition of human JEG-3 cell growth in a cell viability assay.

MONO-MAC-6 = test: cells; format: functional, cell-based, Homo sapiens; conditions: Homo sapiens, MONO-MAC-6;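 further: cell viability assay measuring growth inhibition of human MONO-MAC-6 cells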
Description: SANGER: Inhibition of human MONO-MAC-6 cell growth in a cell viability assay.

DoTc2-4510 = test: cells; format: functional, cell-based; conditions: Homo sapiens
HT1197 = test: cells; format: functional, cell-based, HT-1197; conditions: Homo sapiens
Description: SANGER: Inhibition of human HT-1197 cell growth in a cell viability assay.

KYSE-140 = test: cells; format: functional, cell-based; conditions: Homo sapiens;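 further: cell viability assay measuring growth inhibition in human KYSE-140 cells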
Description: SANGER: Inhibition of human KYSE-140 cell growth in a cell viability assay.

SCC-3 = test: cells; format: functional, cell-based, Homo sapiens; conditions: Homo sapiens, SCC-3;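 further: cell viability assay measuring inhibition of SCC-3 cell growth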
Description: SANGER: Inhibition of human SCC-3 cell growth in a cell viability assay.

K052 = test: cells; format: functional, cell-based, Homo sapiens; conditions: Homo sapiens, K052;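 further: Read-out from a cell viability assay, IC50 reflecting suppression of K052 cell growth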
Description: SANGER: Inhibition of human K052 cell growth in a cell viability assay.

BOKU = test: cells; format: functional, cell-based; conditions: Homo sapiens;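 further: growth inhibition of the human BOKU cell line, read out by a cell viability assay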
Description: SANGER: Inhibition of human BOKU cell growth in a cell viability assay.

MDA-MB-134-VI = test: cells; format: functional, cell-based, Homo sapiens; conditions: Homo sapiens, MDA-MB-134-VI
Description: SANGER: Inhibition of human MDA-MB-134-VI cell growth in a cell viability assay.

HLE = test: cells; format: functional, cell-based; conditions: Homo sapiens;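 further: growth inhibition of human HLE cells, read out by a cell viability assay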
Description: SANGER: Inhibition of human HLE cell growth in a cell viability assay.

KMOE-2 = test: cells; format: functional, cell-based, Homo sapiens; conditions: Homo sapiens, KMOE-2;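 further: growth inhibition of human KMOE-2 cells, read out with a cell viability assay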
Description: SANGER: Inhibition of human KMOE-2 cell growth in a cell viability assay.

CaR-1 = test: cells; format: functional, cell-based; conditions: Homo sapiens;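 further: growth inhibition of human CaR-1 cancer cells, read out with a cell viability assay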
Description: SANGER: Inhibition of human CaR-1 cell growth in a cell viability assay.

HuCCT-1 = test: cells; format: functional, cell-based, HuCCT1; conditions: Homo sapiens;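 further: growth inhibition of HuCCT-1 cells, read out by a cell viability assay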
Description: SANGER: Inhibition of human HuCCT1 cell growth in a cell viability assay.

NCI-H2170 = test: cells; format: functional, cell-based; conditions: Homo sapiens;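 further: cell viability assay measuring growth inhibition of human NCI-H2170 cancer cells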
Description: SANGER: Inhibition of human NCI-H2170 cell growth in a cell viability assay.

GCT = test: cells; format: functional, cell-based; conditions: Homo sapiens;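 further: GCT cell line proliferation inhibition, read out with a cell viability assay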
Description: SANGER: Inhibition of human GCT cell growth in a cell viability assay.

PANC-08-13 = test: cells; format: functional, cell-based; conditions: Homo sapiens
Description: SANGER: Inhibition of human PANC-08-13 cell growth in a cell viability assay.

KYSE-510 = test: cells; format: functional, cell-based; conditions: Homo sapiens;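 further: cell viability readout used to measure how strongly growth of the cell line is suppressed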
Description: SANGER: Inhibition of human KYSE-510 cell growth in a cell viability assay.

HGC-27 = test: cells; format: functional, cell-based; conditions: Homo sapiens;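 further: growth inhibition of human HGC-27 cells, read out in a cell viability assay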
Description: SANGER: Inhibition of human HGC-27 cell growth in a cell viability assay.

DG-75 = test: cells; format: functional, cell-based, Homo sapiens; conditions: Homo sapiens, DG-75;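 further: growth inhibition of DG-75 cells, read out with a cell viability assay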
Description: SANGER: Inhibition of human DG-75 cell growth in a cell viability assay.

NCI-H727 = test: cells; format: functional, cell-based; conditions: Homo sapiens;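 further: growth inhibition of human NCI-H727 cells, read out with a cell viability assay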
Description: SANGER: Inhibition of human NCI-H727 cell growth in a cell viability assay.

UMUC3 = test: cells; format: functional, cell-based; conditions: Homo sapiens;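 further: growth inhibition of human UM-UC-3 cells, read out with a cell viability assay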
Description: SANGER: Inhibition of human UM-UC-3 cell growth in a cell viability assay.

LC4-1 = test: cells; format: functional, cell-based, Homo sapiens; conditions: Homo sapiens, LC4-1;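 further: growth inhibition of LC4-1 cells, read out with a cell viability assay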
Description: SANGER: Inhibition of human LC4-1 cell growth in a cell viability assay.

BPH-1 = test: cells; format: functional, cell-based; conditions: Homo sapiens;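 further: cell viability assay measuring growth inhibition of human BPH-1 cells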
Description: SANGER: Inhibition of human BPH-1 cell growth in a cell viability assay.

LOUCY = test: cells; format: functional, cell-based, Homo sapiens; conditions: Homo sapiens, LOUCY;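 further: growth inhibition of human LOUCY cells, read out with a cell viability assay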
Description: SANGER: Inhibition of human LOUCY cell growth in a cell viability assay.

TE-441-T = test: cells; format: functional, cell-based, Homo sapiens; conditions: Homo sapiens, TE-441-T
Description: SANGER: Inhibition of human TE-441-T cell growth in a cell viability assay.

T47D = test: cells; format: functional, cell-based; conditions: Homo sapiens;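 further: growth inhibition of human T47D cells, measured with a cell viability assay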
Description: SANGER: Inhibition of human T47D cell growth in a cell viability assay.

NCI-H2122 = test: cells; format: functional, cell-based; conditions: Homo sapiens;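 further: growth inhibition of the cells, read out with a cell viability assay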
Description: SANGER: Inhibition of human NCI-H2122 cell growth in a cell viability assay.

HCC1937 = test: cells; format: functional, cell-based; conditions: Homo sapiens;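 further: growth inhibition measured with a cell viability read-out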
Description: SANGER: Inhibition of human HCC1937 cell growth in a cell viability assay.

SW948 = test: cells; format: functional, cell-based; conditions: Homo sapiens;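 further: growth inhibition of SW948 cells, read out with a cell viability assay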
Description: SANGER: Inhibition of human SW948 cell growth in a cell viability assay.

LC-1F = test: cells; format: functional, cell-based, Homo sapiens; conditions: Homo sapiens, LC-1F;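 further: growth inhibition of human LC-1F cells, read out with a cell viability assay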
Description: SANGER: Inhibition of human LC-1F cell growth in a cell viability assay.

Work on `COc1ccc(-c2cc3nccn3c(Nc3ncccc3C(N)=O)n2)cc1OC` yielded an IC50 (ECC4) greater than 8000 nM, an IC50 (NUGC-3) greater than 8000 nM and an IC50 (PFSK-1) of 7190 nM. It also gave an IC50 (Detroit 562) of 3880 nM, an IC50 (COLO-678) greater than 8000 nM and an IC50 (NCI-H64) of 2160 nM. It also gave an IC50 (NCI-H1522) greater than 8000 nM, an IC50 (HSC-3) greater than 8000 nM and an IC50 (Raji) of 5510 nM. For the same molecule, the IC50 (COLO-680N) was greater than 8000 nM, the IC50 (CESS) was 1450 nM and the IC50 (SF-295) was greater than 8000 nM. The IC50 (LB647-SCLC) was greater than 8000 nM, the IC50 (UMC-11) was greater than 8000 nM and the IC50 (THP-1) was greater than 8000 nM. The IC50 (RPMI-2650) was 696 nM, the IC50 (GAMG) was greater than 8000 nM and the IC50 (A673) was greater than 8000 nM. For the same molecule, the IC50 (ARH-77) was 3060 nM, the IC50 (LN-405) was greater than 8000 nM and the IC50 (H4) was greater than 8000 nM. The IC50 (CAL-120) was greater than 8000 nM, the IC50 (BC1 cell line) was 1070 nM and the IC50 (639-V) was 1430 nM. It also gave an IC50 (AU565) of 7150 nM, an IC50 (HuP-T4) of 7990 nM and an IC50 (NCI-H2405) greater than 8000 nM. It also gave an IC50 (JEG-3) greater than 8000 nM, an IC50 (MONO-MAC-6) of 963 nM and an IC50 (DoTc2-4510) of 1060 nM. It also gave an IC50 (HT1197) greater than 8000 nM, an IC50 (KYSE-140) of 3750 nM and an IC50 (SCC-3) of 7500 nM. It also gave an IC50 (K052) greater than 8000 nM, an IC50 (BOKU) greater than 8000 nM and an IC50 (MDA-MB-134-VI) greater than 8000 nM. It also gave an IC50 (HLE) of 3230 nM, an IC50 (KMOE-2) of 1980 nM and an IC50 (CaR-1) greater than 8000 nM. For the same molecule, the IC50 (HuCCT-1) was greater than 8000 nM, the IC50 (NCI-H2170) was 5350 nM and the IC50 (GCT) was 799 nM. For the same molecule, the IC50 (PANC-08-13) was greater than 8000 nM, the IC50 (KYSE-510) was 2870 nM and the IC50 (HGC-27) was 2700 nM. It also gave an IC50 (DG-75) greater than 8000 nM, an IC50 (NCI-H727) of 6150 nM and an IC50 (UMUC3) of 7410 nM. The IC50 (LC4-1) was 5980 nM, the IC50 (BPH-1) was 1990 nM and the IC50 (LOUCY) was 3650 nM. For the same molecule, the IC50 (TE-441-T) was 3960 nM, the IC50 (T47D) was greater than 8000 nM and the IC50 (NCI-H2122) was 1280 nM. For the same molecule, the IC50 (HCC1937) was greater than 8000 nM, the IC50 (SW948) was greater than 8000 nM and the IC50 (LC-1F) was greater than 8000 nM.

In the case of `COC(=O)[C@H](CCSC)NC(=O)c1ccc(NC[C@@H](N)CS)cc1-c1ccccc1`, the IC50 (ECC4) is reported as greater than 1020 nM, the IC50 (NUGC-3) is reported as greater than 1020 nM and the IC50 (PFSK-1) is reported as greater than 1020 nM. It also gave an IC50 (Detroit 562) greater than 1020 nM, an IC50 (COLO-678) greater than 1020 nM and an IC50 (NCI-H64) greater than 1020 nM. The IC50 (NCI-H1522) was greater than 1020 nM, the IC50 (HSC-3) was greater than 1020 nM and the IC50 (Raji) was greater than 1020 nM. For the same molecule, the IC50 (COLO-680N) was greater than 1020 nM, the IC50 (CESS) was greater than 1020 nM and the IC50 (SF-295) was greater than 1020 nM. It also gave an IC50 (LB647-SCLC) greater than 1020 nM, an IC50 (UMC-11) greater than 1020 nM and an IC50 (THP-1) greater than 1020 nM. For the same molecule, the IC50 (RPMI-2650) was greater than 1020 nM, the IC50 (GAMG) was greater than 1020 nM and the IC50 (A673) was greater than 1020 nM. It also gave an IC50 (ARH-77) greater than 1020 nM, an IC50 (LN-405) greater than 1020 nM and an IC50 (H4) greater than 1020 nM. For the same molecule, the IC50 (CAL-120) was greater than 1020 nM, the IC50 (BC1 cell line) was greater than 1020 nM and the IC50 (639-V) was greater than 1020 nM. It also gave an IC50 (AU565) greater than 1020 nM, an IC50 (HuP-T4) greater than 1020 nM and an IC50 (NCI-H2405) greater than 1020 nM. The IC50 (JEG-3) was greater than 1020 nM, the IC50 (MONO-MAC-6) was greater than 1020 nM and the IC50 (DoTc2-4510) was greater than 1020 nM. For the same molecule, the IC50 (HT1197) was greater than 1020 nM, the IC50 (KYSE-140) was greater than 1020 nM and the IC50 (SCC-3) was greater than 1020 nM. It also gave an IC50 (K052) greater than 1020 nM, an IC50 (BOKU) greater than 1020 nM and an IC50 (MDA-MB-134-VI) greater than 1020 nM. For the same molecule, the IC50 (HLE) was greater than 1020 nM, the IC50 (KMOE-2) was greater than 1020 nM and the IC50 (CaR-1) was greater than 1020 nM. It also gave an IC50 (HuCCT-1) greater than 1020 nM, an IC50 (NCI-H2170) greater than 1020 nM and an IC50 (GCT) greater than 1020 nM. The IC50 (PANC-08-13) was greater than 1020 nM, the IC50 (KYSE-510) was greater than 1020 nM and the IC50 (HGC-27) was greater than 1020 nM. It also gave an IC50 (DG-75) greater than 1020 nM, an IC50 (NCI-H727) greater than 1020 nM and an IC50 (UMUC3) greater than 1020 nM. For the same molecule, the IC50 (LC4-1) was greater than 1020 nM, the IC50 (BPH-1) was greater than 1020 nM and the IC50 (LOUCY) was greater than 1020 nM. The IC50 (TE-441-T) was greater than 1020 nM, the IC50 (T47D) was greater than 1020 nM and the IC50 (NCI-H2122) was greater than 1020 nM. For the same molecule, the IC50 (HCC1937) was greater than 1020 nM, the IC50 (SW948) was greater than 1020 nM and the IC50 (LC-1F) was greater than 1020 nM.
